Data published in publication PMC6478789, “A chemical toolbox for the study of bromodomains and epigenetic signaling” (Nature Communications, 2019).

Key:
Experiment in all cases: Methyl transferase scintillation proximity assay
Format in all cases: biochemical
Details in all cases: average of two measurements; for inhibition at 10 µM: read-out: MTases Inhibition (%)
SETDB1 = target: T1, SETDB1 (Homo sapiens, UniProt Q15047)
T1 construct: purchased DiscoverX BROMOscan (bromodomains); SGC in-house methyltransferase panel
Procedure: (§1) Assays measuring lysine and arginine methyl transferase activity have been described in Scheer et al.. A radioactivity-based scintillation proximity assay was used to monitor incorporation of a tritium-labeled methyl group into the biotinylated substrate of the methyl transferase. A 10-μl reaction containing ^3H-SAM and substrate at concentrations close to the apparent Km values for each enzyme was prepared. The reactions were quenched with 10 μl of 7.5 M guanidine hydrochloride; 180 μl of 20 mM Tris buffer (pH 8.0) were added; and the mixture was transferred to a 96-well FlashPlate and incubated for 1 h. The counts per minute (CPM) was measured on a TopCount plate reader. The CPM in the absence of compound or enzyme was defined as 100% activity and background (0%), respectively, for each dataset.

DNMT3B/3L = target: T2, DNMT3B/3L (Homo sapiens, UniProt Q9UBC3)
T2 construct: purchased DiscoverX BROMOscan (bromodomains); SGC in-house methyltransferase panel
Procedure: as §1

PRMT1 = target: T3, PRMT1 (Homo sapiens, UniProt Q99873)
T3 construct: purchased DiscoverX BROMOscan (bromodomains); SGC in-house methyltransferase panel
Procedure: as §1

SETD7 = target: T4, SETD7 (Homo sapiens, UniProt Q8WTS6)
T4 construct: purchased DiscoverX BROMOscan (bromodomains); SGC in-house methyltransferase panel
T4 sequence (Q8WTS6 1-366): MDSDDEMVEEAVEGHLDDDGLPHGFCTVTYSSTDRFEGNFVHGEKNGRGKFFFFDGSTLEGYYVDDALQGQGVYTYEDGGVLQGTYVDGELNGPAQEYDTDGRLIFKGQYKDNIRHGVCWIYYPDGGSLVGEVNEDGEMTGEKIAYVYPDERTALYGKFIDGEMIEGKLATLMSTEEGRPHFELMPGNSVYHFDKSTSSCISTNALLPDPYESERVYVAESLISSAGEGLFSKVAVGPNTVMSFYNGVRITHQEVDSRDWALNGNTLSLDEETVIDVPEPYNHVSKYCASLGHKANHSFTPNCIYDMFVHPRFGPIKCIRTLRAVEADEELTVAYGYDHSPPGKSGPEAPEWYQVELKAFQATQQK
Procedure: as §1

SUV39H1 = target: T5, SUV39H1 (Homo sapiens, UniProt O43463)
T5 construct: purchased DiscoverX BROMOscan (bromodomains); SGC in-house methyltransferase panel
T5 sequence (O43463 1-412): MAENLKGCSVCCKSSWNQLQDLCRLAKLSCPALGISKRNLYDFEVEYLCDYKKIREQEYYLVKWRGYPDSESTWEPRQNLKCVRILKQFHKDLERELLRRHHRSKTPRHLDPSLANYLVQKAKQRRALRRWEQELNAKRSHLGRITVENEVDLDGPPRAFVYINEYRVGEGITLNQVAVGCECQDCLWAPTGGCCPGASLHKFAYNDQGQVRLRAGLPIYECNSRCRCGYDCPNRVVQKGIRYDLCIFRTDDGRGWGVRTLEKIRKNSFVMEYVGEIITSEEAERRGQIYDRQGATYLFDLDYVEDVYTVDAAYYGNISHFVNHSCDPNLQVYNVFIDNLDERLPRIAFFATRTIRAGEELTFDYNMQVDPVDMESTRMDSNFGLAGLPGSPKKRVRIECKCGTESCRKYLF
Procedure: as §1

PRMT6 = target: T6, PRMT6 (Homo sapiens, UniProt Q96LA8)
T6 construct: purchased DiscoverX BROMOscan (bromodomains); SGC in-house methyltransferase panel
Procedure: as §1

DNMT3A/3L = target: T7, DNMT3A/3L (Homo sapiens, UniProt Q9Y6K1)
T7 construct: purchased DiscoverX BROMOscan (bromodomains); SGC in-house methyltransferase panel
Procedure: as §1

PRMT3 = target: T8, PRMT3 (Homo sapiens, UniProt O60678)
T8 construct: purchased DiscoverX BROMOscan (bromodomains); SGC in-house methyltransferase panel
Procedure: as §1

SMYD3 = target: T9, SMYD3 (Homo sapiens, UniProt Q9H7B4)
T9 construct: purchased DiscoverX BROMOscan (bromodomains); SGC in-house methyltransferase panel
T9 sequence (Q9H7B4 1-428): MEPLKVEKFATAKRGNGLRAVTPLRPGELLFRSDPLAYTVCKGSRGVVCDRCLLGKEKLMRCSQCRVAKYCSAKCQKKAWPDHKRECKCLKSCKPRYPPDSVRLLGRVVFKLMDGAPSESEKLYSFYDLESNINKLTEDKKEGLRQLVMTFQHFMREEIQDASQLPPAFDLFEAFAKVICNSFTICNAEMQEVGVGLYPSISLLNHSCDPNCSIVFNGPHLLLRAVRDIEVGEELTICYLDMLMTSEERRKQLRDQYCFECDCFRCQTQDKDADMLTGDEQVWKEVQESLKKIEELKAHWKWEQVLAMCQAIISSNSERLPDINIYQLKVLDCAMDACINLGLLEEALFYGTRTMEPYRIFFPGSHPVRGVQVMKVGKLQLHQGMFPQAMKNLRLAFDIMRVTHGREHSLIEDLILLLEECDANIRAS
Procedure: as §1

SUV420H1 = target: T10, SUV420H1 (Homo sapiens, UniProt Q4FZB7)
T10 construct: purchased DiscoverX BROMOscan (bromodomains); SGC in-house methyltransferase panel
Procedure: as §1

MLL1 (Trimeric) = target: T11, MLL1 (Trimeric) (Homo sapiens, UniProt Q03164)
T11 construct: purchased DiscoverX BROMOscan (bromodomains); SGC in-house methyltransferase panel
Procedure: as §1

PRC2-EZH2 = target: T12, PRC2-EZH2 (Homo sapiens, UniProt Q15910)
T12 construct: purchased DiscoverX BROMOscan (bromodomains); SGC in-house methyltransferase panel
Procedure: as §1

T3 sequence (Q99873 whole entry): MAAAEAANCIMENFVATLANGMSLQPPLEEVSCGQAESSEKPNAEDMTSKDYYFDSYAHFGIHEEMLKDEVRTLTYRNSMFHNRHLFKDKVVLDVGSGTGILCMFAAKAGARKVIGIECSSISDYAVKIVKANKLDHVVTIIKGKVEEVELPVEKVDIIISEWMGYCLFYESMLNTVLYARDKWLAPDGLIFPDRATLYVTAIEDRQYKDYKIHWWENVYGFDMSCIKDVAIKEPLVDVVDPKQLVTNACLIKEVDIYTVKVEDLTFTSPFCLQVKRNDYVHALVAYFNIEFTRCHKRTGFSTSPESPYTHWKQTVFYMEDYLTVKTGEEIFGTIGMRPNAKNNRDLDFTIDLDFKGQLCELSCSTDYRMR
T10 sequence (Q4FZB7 whole entry): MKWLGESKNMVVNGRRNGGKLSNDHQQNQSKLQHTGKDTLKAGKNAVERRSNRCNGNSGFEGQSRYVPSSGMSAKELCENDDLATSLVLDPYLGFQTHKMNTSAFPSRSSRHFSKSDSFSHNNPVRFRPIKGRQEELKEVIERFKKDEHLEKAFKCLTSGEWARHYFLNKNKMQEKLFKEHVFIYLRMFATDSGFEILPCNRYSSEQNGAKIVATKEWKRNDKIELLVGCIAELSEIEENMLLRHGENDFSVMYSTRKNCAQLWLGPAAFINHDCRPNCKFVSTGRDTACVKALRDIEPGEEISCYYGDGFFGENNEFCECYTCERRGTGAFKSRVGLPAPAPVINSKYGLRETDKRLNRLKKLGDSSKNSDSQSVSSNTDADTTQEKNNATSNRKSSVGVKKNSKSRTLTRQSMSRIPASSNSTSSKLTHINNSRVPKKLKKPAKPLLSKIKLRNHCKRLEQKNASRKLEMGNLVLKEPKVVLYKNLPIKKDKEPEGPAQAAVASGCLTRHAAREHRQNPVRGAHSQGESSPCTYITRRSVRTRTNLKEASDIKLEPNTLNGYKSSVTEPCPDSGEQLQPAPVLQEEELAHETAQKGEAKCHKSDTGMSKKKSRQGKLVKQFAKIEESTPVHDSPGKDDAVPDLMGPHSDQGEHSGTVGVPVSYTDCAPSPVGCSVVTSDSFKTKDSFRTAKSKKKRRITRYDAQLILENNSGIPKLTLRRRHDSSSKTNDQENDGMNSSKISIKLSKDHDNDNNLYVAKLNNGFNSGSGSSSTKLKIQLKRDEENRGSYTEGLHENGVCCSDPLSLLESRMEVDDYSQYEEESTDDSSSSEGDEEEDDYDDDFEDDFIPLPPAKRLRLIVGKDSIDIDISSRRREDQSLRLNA
T12 sequence (Q15910 whole entry): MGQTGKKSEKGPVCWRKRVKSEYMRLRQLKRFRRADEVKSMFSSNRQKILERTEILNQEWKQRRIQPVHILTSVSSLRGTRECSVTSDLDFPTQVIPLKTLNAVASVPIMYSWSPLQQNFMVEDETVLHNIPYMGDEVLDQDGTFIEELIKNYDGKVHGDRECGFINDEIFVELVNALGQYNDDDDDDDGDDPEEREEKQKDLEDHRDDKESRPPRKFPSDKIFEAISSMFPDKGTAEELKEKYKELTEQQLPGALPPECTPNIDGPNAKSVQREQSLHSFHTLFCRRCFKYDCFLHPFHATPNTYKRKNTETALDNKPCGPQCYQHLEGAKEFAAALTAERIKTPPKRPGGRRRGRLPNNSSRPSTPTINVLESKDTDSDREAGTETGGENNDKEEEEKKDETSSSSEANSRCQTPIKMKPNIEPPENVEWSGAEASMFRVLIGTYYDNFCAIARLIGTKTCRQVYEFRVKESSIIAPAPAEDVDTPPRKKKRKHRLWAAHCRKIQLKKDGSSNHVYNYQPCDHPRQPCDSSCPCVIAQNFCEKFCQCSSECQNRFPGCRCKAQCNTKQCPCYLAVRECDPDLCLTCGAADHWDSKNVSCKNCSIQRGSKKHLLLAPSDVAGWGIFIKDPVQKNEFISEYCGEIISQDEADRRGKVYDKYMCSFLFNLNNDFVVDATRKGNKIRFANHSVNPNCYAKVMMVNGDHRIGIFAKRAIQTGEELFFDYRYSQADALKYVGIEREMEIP
T12 sequence (O75530 whole entry partner): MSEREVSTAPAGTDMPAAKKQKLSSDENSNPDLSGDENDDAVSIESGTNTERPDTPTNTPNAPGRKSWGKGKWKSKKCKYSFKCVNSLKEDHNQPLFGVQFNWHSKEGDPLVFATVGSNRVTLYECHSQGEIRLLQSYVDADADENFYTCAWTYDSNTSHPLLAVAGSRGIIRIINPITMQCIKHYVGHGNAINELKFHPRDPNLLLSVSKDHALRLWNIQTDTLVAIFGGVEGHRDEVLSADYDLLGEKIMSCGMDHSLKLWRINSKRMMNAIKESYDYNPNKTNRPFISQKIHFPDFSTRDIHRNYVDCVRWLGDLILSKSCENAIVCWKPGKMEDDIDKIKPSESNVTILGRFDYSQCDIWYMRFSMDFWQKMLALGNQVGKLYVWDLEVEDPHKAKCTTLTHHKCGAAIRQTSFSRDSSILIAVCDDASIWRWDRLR
T12 sequence (Q15022 whole entry partner): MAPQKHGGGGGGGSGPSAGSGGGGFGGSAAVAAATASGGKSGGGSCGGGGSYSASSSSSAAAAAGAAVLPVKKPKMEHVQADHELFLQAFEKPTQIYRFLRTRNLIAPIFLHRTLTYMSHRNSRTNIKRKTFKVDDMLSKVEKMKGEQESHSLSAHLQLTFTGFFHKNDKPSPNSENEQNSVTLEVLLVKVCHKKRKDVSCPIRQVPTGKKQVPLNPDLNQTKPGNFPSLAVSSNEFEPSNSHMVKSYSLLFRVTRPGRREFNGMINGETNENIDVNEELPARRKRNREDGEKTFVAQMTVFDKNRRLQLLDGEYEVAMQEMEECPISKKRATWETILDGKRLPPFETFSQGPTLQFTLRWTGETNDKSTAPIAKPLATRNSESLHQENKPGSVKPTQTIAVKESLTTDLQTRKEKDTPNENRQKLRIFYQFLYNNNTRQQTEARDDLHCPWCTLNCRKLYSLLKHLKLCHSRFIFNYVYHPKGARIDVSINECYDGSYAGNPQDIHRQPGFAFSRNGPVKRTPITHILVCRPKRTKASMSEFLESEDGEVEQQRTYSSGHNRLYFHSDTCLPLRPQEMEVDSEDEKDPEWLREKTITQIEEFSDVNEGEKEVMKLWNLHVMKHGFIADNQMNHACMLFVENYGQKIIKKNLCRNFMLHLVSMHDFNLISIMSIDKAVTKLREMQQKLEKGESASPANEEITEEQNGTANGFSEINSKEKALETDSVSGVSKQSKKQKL
T8 sequence (O60678 whole entry): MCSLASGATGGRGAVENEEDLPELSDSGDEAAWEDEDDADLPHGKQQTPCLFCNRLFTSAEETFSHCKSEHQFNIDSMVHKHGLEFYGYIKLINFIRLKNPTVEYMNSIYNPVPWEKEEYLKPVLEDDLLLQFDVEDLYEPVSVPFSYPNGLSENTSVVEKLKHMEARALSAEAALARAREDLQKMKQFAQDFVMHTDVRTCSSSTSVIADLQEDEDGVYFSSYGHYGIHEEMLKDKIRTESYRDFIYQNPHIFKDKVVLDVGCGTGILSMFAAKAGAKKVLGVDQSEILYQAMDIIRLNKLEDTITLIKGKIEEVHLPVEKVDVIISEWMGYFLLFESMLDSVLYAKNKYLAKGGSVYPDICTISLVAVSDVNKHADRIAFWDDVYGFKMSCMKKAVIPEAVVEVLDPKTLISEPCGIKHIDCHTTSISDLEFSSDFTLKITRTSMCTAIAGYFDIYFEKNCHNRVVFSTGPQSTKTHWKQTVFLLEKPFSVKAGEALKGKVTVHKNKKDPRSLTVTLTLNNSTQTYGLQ
T6 sequence (Q96LA8 whole entry): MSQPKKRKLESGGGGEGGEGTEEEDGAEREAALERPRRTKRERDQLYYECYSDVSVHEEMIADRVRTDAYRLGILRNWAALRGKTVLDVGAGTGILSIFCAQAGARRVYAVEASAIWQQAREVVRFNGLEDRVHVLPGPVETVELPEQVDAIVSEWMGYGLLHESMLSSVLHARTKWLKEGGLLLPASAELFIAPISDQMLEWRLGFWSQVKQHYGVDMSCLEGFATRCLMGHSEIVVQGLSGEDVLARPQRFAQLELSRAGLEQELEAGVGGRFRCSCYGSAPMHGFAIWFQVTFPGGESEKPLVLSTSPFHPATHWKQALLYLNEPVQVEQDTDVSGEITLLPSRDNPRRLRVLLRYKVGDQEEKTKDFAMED

SMILES	inhibition at 10 µM (SETDB1) [%]	inhibition at 10 µM (DNMT3B/3L) [%]	inhibition at 10 µM (PRMT1) [%]	inhibition at 10 µM (SETD7) [%]	inhibition at 10 µM (SUV39H1) [%]	inhibition at 10 µM (PRMT6) [%]	inhibition at 10 µM (DNMT3A/3L) [%]	inhibition at 10 µM (PRMT3) [%]	inhibition at 10 µM (SMYD3) [%]	inhibition at 10 µM (SUV420H1) [%]	inhibition at 10 µM (MLL1 (Trimeric)) [%]	inhibition at 10 µM (PRC2-EZH2) [%]	also measured
Cc1c(NC(=O)c2cc(C(N)=O)nc3cc(F)ccc23)c(C(F)(F)F)nn1Cc1ccc(C(C)(C)C)cc1 [BAY-588]	5	-6	0	10	12	4	-1	5	7	-5	7	3	
COc1cc(Cl)c(C(=O)N[C@@H](CN[C@H]2CC[C@@H](N)CC2)Cc2ccc(C#N)cc2)cc1-c1ccc(CN[C@H](C)c2ccc(C)cc2)o1 [BAY-850]	8	28	15	11	5	13	21	3	6	5	-1	3	
Cc1c(NC(=O)c2cc(C(N)=O)nc3cc(F)ccc23)c(C(F)(F)F)nn1Cc1ccc(C#N)cc1 [BAY-876]	-4	1	2	10	16	-3	6	1	3	-1	11	5	
CN1C[C@H](Nc2cnn(C)c(=O)c2Br)C[C@H](c2ccccc2)C1 [GSK4027]	-1	1	4	12	-3	6	3	2	1	8	8	-5	
COc1ccccc1C(=O)Nc1cc2c(cc1N1CCNC[C@H]1C)n(C)c(=O)n2C [GSK6853]													MTases Inhibition (%) (SETDB1; 10µM): 1%; MTases Inhibition (%) (DNMT3B/3L; 10µM): 8%; MTases Inhibition (%) (PRMT1; 10µM): -7%; MTases Inhibition (%) (SETD7; 10µM): 7%; MTases Inhibition (%) (SUV39H1; 10µM): -3%; MTases Inhibition (%) (PRMT6; 10µM): 5%; MTases Inhibition (%) (DNMT3A/3L; 10µM): 13%; MTases Inhibition (%) (PRMT3; 10µM): 1%; MTases Inhibition (%) (SMYD3; 10µM): 9%; MTases Inhibition (%) (SUV420H1; 10µM): 5%; MTases Inhibition (%) (MLL1 (Trimeric); 10µM): 7%; MTases Inhibition (%) (PRC2-EZH2; 10µM): 0%
CO[C@H]1CNC[C@@H](OCC2CCC(F)(F)CC2)[C@@H]1Nc1ncc(-c2cncc(C)c2)c2cc(C)c(=O)[nH]c12 [GSK8814]	1	18	3	7	-2	0	8	3	8	-3	6	2	
Cc1nnc2c3ccccc3c(N[C@@H](C)[C@H](c3ccccc3)N(C)C)nn12 [L-Moses]	1	-1	-2	7	-2	5	2	0	10	4	20	-4	
CN(C)CCCOc1ccc(-c2cc(NCCCn3cccn3)nc(S(C)(=O)=O)n2)cc1 [TP-238]	-1	0	0	-1	-1	6	8	5	7	3	17	3	
